{"source": "patent EP1064940A1", "about": "“Antiviral therapy” (Universitair Medisch Centrum Utrecht, priority 1999, dated 2001)", "type_in_all_cases": "cell-based", "key": {"HIV-1Ba-L": {"tested_on": "HIV-1Ba-L", "test": "HIV-1 infection of monocyte-derived macrophages, p24-core antigen ELISA", "conditions": "Human immunodeficiency virus 1, Macrophage, MDM infected with HIV-1Ba-L, multiplicity of infection 0.02", "experimental": "Cells are washed twice and monocytes are purified by countercurrent centrifugal elutriation. Cells are >98% monocytes by criteria of cell morphology on May-Grunwald-Giemsa-stained cytosmears and by nonspecific esterase staining using alpha-naphtylacetate (Sigma Chemical Co., St. Louis, MO) as substrate.\n(§1) HIV-1 strain Ba-L is grown to high titer in MDM. The 50% tissue culture infectious dose (TCID50) of the virus stock is determined by endpoint dilution with serial fourfold dilutions in a 96-well microtiter plate on MDM. HIV-1 strain AT is grown to high titer in PHA-stimulated PBMC. The TCID50 of the virus stock is determined by endpoint dilution with serial fourfold dilutions in a 96-well microtiter plate on PBMC.\nPBMC were washed twice and monocytes were purified by countercurrent centrifugal elutriation. […] Concentrations above 0.3 µM APHS inhibit p24 production. 30 µM APHS inhibits HIV-1 replication by 88%."}, "HIV-1BaL": {"tested_on": "HIV-1BaL", "test": "HIV-1BaL infection of PHA-stimulated PBMC, p24-core antigen ELISA", "experimental": "as §1"}, "[1]": {"tested_on": "Monocyte-derived macrophages (MDM)", "test": "MTT cytotoxicity assay in monocyte-derived macrophages", "conditions": "4 days incubation in different concentrations", "experimental": "Cell viability is assessed by the MTT assay. In short, cells are incubated with MTT 3-(4,5-dimethylthiazol-2-yl)-2,5-diphenyltetrazollumbromide (Sigma) for 2 hours at 37 °C. During this time viable cells convert MTT into […] formazan dyes. Afterwards crystals are solubilised with a solution containing isopropanol. The OD of the supernatant is measured at 550 nm.\nFig 3 - Monocyte-derived macrophages (MDM) were obtained like described in legend of Fig.2. […] After a 4 days incubation period cellular viability was assessed by MTT cytotoxicity assay where viable cells convert MTT into a colored formazan dye that can be measured spectrophotometrically."}, "HIV-1": {"tested_on": "HIV-1", "test": "HIV-1 infection of PHA-stimulated PBMC, p24-core antigen ELISA (strain not specified in the result)", "conditions": "Human immunodeficiency virus 1; PHA-stimulated PBMC infected with HIV-1AT or HIV-1BaL; p24 after 4 and 5 days; read-out: Concentrations that inhibit HIV-1 production", "experimental": "as §1"}, "PBMC": {"tested_on": "PBMC", "test": "WST-1 cytotoxicity assay in PBMC", "conditions": "5 days incubation", "experimental": "Cell viability is assessed with WST-1 assay. Cells are incubated with the tetrazolium salt WST-1 (4-[3-(4-lodophenyl)-2-(4-nitrophenyl)-2H-5-tetrazolio]-1,3-benzene disulfonate) for 2 hours at 37 °C. During this time viable cells convert WST-1 into water soluble formazan dyes. The OD of the supernatant is measured at 550 nm.\nFig 5 - PBMC were obtained and stimulated as described in legend of Fig. 4. […] After a 5 days incubation period cellular viability was assessed by WST-1 cytotoxicity assay where viable cells convert WST-1 into a coloured formazan dye that can be measured spectrophotometrically."}}, "data": [{"compound": "CCCCC#CCSc1ccccc1OC(C)=O", "note": "[APHS, o-(acetoxy-phenyl)hept-2-ynyl sulphide]", "values": [{"measurement": "inhibition at 30 µM", "setting": "HIV-1Ba-L; 30 µM APHS, read-out: inhibits HIV-1 replication by", "value": 88, "unit": "%"}, {"measurement": "minimal effective concentration", "setting": "HIV-1Ba-L; supernatant after 4 and 5 days, read-out: Concentrations that inhibit p24 production", "value": "> 0.3", "unit": "µM"}, {"measurement": "inhibition at 1 µM", "setting": "HIV-1BaL; Human immunodeficiency virus 1, 1 µM APHS, when infectivity is lower (Fig 4c), read-out: inhibit HIV-1BaL production by", "value": 50, "unit": "%"}, {"measurement": "inhibition at 30 µM", "setting": "HIV-1BaL; Human immunodeficiency virus 1, 30 µM APHS, read-out: inhibit HIV-1BaL replication by", "value": 100, "unit": "%"}, {"measurement": "cytotoxicity (cellular viability, MTT)", "setting": "[1]", "value": "None of the tested concentrations of APHS was found to be cytotoxic"}, {"measurement": "minimal effective concentration", "setting": "HIV-1", "value": "> 1", "unit": "µM"}, {"measurement": "Concentrations found to reduce viability", "setting": "PBMC", "value": "≥ 100", "unit": "µM"}]}]}
